Experimental data as given in patent publication US10532979B2, “Phenyldifluoromethyl-substituted prolinamide compound” (ASTELLAS PHARMA INC., priority 2017, dated 2020).
Counter-ions that a name gives are not always drawn.

Assays:
[1] = tested on: MHC class II expression in B cells of peripheral blood; test: Ex vivo MHC class II expression inhibitory effect using mouse peripheral blood after oral administration; type: in vivo; conditions: male C57BL/6J mice, 0.3 mg/kg oral, peripheral blood after 6 hours, LPS 100 μg/mL 15 hours
Experimental: Test Example 3: Evaluation of Ex Vivo MHC Class II Expression Inhibitory Effect Using Mouse Peripheral Blood
The expression inhibitory effect of MHC class II molecules was evaluated in an ex vivo system.
The test compound was orally administered to male C57BL/6J mice (Charles River Laboratories Japan, Inc.), and an inhibition effect with respect to an increase in the expression of MHC class II in B cells of peripheral blood after oral administration was examined. That is, 10 mL/kg of the test compound dissolved in a vehicle [30% propylene glycol solvent {propylene glycol:hydrogenated castor oil (HCO40): Tween 80=4:2:1}/HCl (2 equivalents to the test compound)/water] was orally administered to male C57BL/6J mice (dose: 0.3 mg/kg, 4 subjects per group), and peripheral blood was recovered after 6 hours. To 90 μL of the peripheral blood, 10 μL of PBS or 10 μL (final concentration 100 μg/mL) of LPS (Sigma L4005) was added, and the culturing was carried out at 37° C. under 5% CO2 for 15 hours. […] After washing, using the flow cytometry system (FACSCanto II, BD BIOSCIENCES), an expression level of MHC class II on a surface of B220 positive B cells was measured with an average fluorescence intensity of FITC (hereinafter referred to as MFI) as an index. […]

[2] = tested on: MHC class II expression in B cells; test: Inhibitory effect on in vitro MHC class II expression using mouse splenocytes (LPS-stimulated, B220 positive B cells); type: cell-based; conditions: B-cell, C57BL/6J mouse splenocytes, LPS 2 μg/mL, 48 hours, YAe antibody, read-out: Dat2: IC50 value, inhibition of MHC class II expression
Excerpt: Test Example 2: Evaluation of Inhibitory Effect on In Vitro MHC Class II Expression Using Mouse Splenocytes (Cell Evaluation System)
In antigen-presenting cells, inhibition of cathepsin S suppresses expression of MHC class II molecules. As a result, suppression of antigen presentation to CD4-positive T cells causes a deterioration in the immune response to foreign antigens. In regard to an increase in MHC class II expression in B cells, the inhibitory effect of the compound of the formula (I) was examined.
Splenocytes collected from male C57BL/6J mice (Charles River Laboratories Japan, Inc.) were seeded in a 96-well plate by 1×10^5 cells/well. With RPMI 1640 medium (containing 10% fetal bovine serum (FCS), 5×10^−5 M 2-mercaptoethanol, 50 IU/mL penicillin, and 50 μg/mL streptomycin), 10 mM DMSO solution of the test compound was diluted 5-fold dilution series with 9 steps so that a final concentration becomes […] to 10 μM, or diluted 5-fold dilution series with 12 steps so that a final concentration becomes 0.205 pM to 10 μM (final DMSO concentration is 0.1%), and added. At the same time, LPS (Sigma L4005) was added to the well so that the final concentration becomes 2 μg/mL, and the cells were cultured at 37° C. under 5% CO2 for 48 hours. After culturing, the cells were stained with biotin-labeled YAe antibody (EBIOSCIENCE 13-5741-85) at 4° C. for 20 minutes, and washed. The cells were further stained with FITC fluorochrome labeled anti-mouse B220 antibody (BD BIOSCIENCES 553088) and PE fluorochrome labeled streptavidin (BD BIOSCIENCES 554061) for 20 minutes at 4° C. Therefore, an expression level (fluorescence intensity of YAe-biotin/streptavidin-PE) of MHC class II bound to the Ea peptide in B220 positive B cells was measured by using a flow cytometry system (Guava EasyCyte Plus System, Millipore). An inhibition rate at each concentration was defined by suppressing a value at the time of non-stimulation of LPS without addition of the test compound and a value at the time of stimulation of LPS without addition of the test compound by 100% inhibition and 0% inhibition, respectively, and therefore an IC50 value was calculated by the sigmoid Emax nonlinear regression method. In the table, Ex represents Example compound No., and Dat2 represents the IC50 value (nM).

[3] = target: T1, human cathepsin S (Homo sapiens, UniProt P25774); test: Measurement of in vitro human cathepsin S inhibitory activity; type: biochemical; conditions: substrate VVR-AMC 40 μM, pH 4.5, 37° C.; read-out: Dat1: IC50 value of human cathepsin S inhibitory activity
T1 construct: purchased R&D 1183-CY-010
Experimental: Test Example 1: Measurement of In Vitro Human Cathepsin S Inhibitory Activity
To a 96-well plate, 5 μL of human cathepsin S enzyme (R&D 1183-CY-010) was added so as to be 20 ng/well. Next, with assay buffer (50 mM sodium acetate, 250 mM sodium chloride, and 5 mM dithiothreitol (DTT), pH=4.5), a test compound (10 mM DMSO solution) was diluted 10-fold dilution series with 5 steps so that a final concentration becomes 0.1 nM to 1 μM or diluted 3-fold dilution series with 7 steps so that a final concentration becomes 0.01 nM to 10 nM, and 10 μL thereof was added to the well (final DMSO concentration was 0.1%), followed by addition of 25 μL of synthetic substrate VVR-AMC (Peptide Institute 3211-V) so that a final concentration becomes 40 μM, and thereby an enzymatic reaction was initiated. The fluorescence intensity (excitation wavelength: 380 nm, fluorescence wavelength: 460 nm) was measured at 37° C. for 5 to 10 minutes from the start of the reaction using a spectrofluorophotometer (SPECTRAMAX GEMINI, Molecular Devices), and a reaction rate when linearity was recognized (5 minutes) was obtained for each concentration of the test compound. An inhibition rate at each concentration was defined by suppressing a reaction rate at the time of non-addition of an enzyme without adding the test compound and a reaction rate at the time of addition of an enzyme without adding the test compound by 100% inhibition and 0% inhibition, respectively, and therefore an IC50 value was calculated by a sigmoid Emax nonlinear regression method. In the table, Ex represents Example compound No., and Dat1 represents the IC50 value (nM) of human cathepsin S inhibitory activity.

[4] = tested on: NZB/W F1 mice (SLE-like disease); test: Inhibitory effect on SLE-like disease onset in spontaneous onset model using NZB/W F1 mice; type: in vivo, mouse; conditions: NZB/W F1 female mice
Excerpt: Test Example 4: Evaluation of Inhibitory Effect on SLE-Like Disease Onset in Spontaneous Onset Model Using NZB/W F1 Mice
NZB/W F1 mice (Japan SLC, Inc.) is used as a model of SLE spontaneously developing a disease condition close to humans (“JAMA”, 1966, Vol. 195, p. 145; “Advances in Immunology”, 1985, Vol. 37, p. 269-390; “Journal of Biomedicine and Biotechnology”, 2011, Vol. 2011, 271694).
NZB/W F1 female mice were divided into groups according to urine protein values (creatinine corrected value), anti-double stranded DNA (dsDNA) antibody value (IgG) in plasma, an expression level of MHC class II in B cells of peripheral blood, and body weight at age of 19 weeks. At this time, individuals with urine protein values (creatinine corrected value) of 3 or more were excluded. From age of 20 weeks, the test compound was orally administered twice a day, and then urine collection and blood collection were performed over time. The change in urine protein value and anti-dsDNA antibody value over time were evaluated.
In the above test, anti-dsDNA IgG antibody value in plasma generated in association with SLE-like disease was measured by ELISA method (ALPHA DIAGNOSTIC 5120). In geometric mean values of the antibody value at age of 28 weeks and age of 32 weeks of each individual, a geometric mean value of 10 vehicle-administered subjects was 216662 U/mL, whereas a geometric mean value of 10 subjects administered with 1 mg/kg b.i.d. of the compound of Example 2 was 26827 U/mL, which is a low value having a significant difference (P value=0.0009, Dunnett's multiple comparison). In addition, urine protein values (creatinine corrected value) at age of 40 weeks were measured. A geometric mean value of the 10 vehicle-administered subjects was 13.0, whereas a geometric mean value of the 10 subjects administered with 1 mg/kg b.i.d. of the compound of Example 2 was 0.7, which is a low value having a significant difference (P value=0.0005, Dunnett's multiple comparison).

T1 sequence (P25774 115-331): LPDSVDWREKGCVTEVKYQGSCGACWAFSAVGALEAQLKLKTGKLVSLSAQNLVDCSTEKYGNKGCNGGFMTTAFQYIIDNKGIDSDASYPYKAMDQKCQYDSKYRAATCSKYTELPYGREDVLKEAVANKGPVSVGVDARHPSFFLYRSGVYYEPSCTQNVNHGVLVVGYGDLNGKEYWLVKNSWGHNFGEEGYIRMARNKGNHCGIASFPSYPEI

SMILES	melting point	IC50 [2]	IC50 [3]	inhibition rate of ΔMFI (increase in expression of MHC class II on B220 positive B cells) [1]	effect on SLE-like disease onset ([4]; 1 mg/kg b.i.d. oral)	anti-dsDNA IgG antibody value in plasma, geometric mean value ([4]; 1 mg/kg b.i.d. oral from age of 20 weeks, age of 28 weeks and 32 weeks, 10 subjects, vehicle 216662 U/mL, P value=0.0009)	urine protein value (creatinine corrected value), geometric mean value ([4]; 1 mg/kg b.i.d. oral, age of 40 weeks, 10 subjects, vehicle 13.0, P value=0.0005)
CN1CCN(Cc2ccc(C(F)(F)[C@@H]3C[C@@H](C(=O)NC4(C#N)CC4)N(C(=O)C4(C)CC4)C3)c(C(F)(F)F)c2)CC1 (as salt: succinate) [Example 18, (4R)—N-(1-cyanocyclopropyl)-4-(difluoro{4-[(4-methylpiperazin-1-yl)methyl]-2-(trifluoromethyl)phenyl}methyl)-1-[(1-methylcyclopropyl)carbonyl]-L-prolinamide]	134.3 °C	–	–	–	–	–	–
CN1CCN(Cc2ccc(C(F)(F)[C@@H]3C[C@@H](C(=O)NC4(C#N)CC4)N(C(=O)C4(C(F)(F)F)CC4)C3)c(C(F)(F)F)c2)CC1 [Example 4, (4R)—N-(1-cyanocyclopropyl)-4-(difluoro{4-[(4-methylpiperazin-1-yl)methyl]-2-(trifluoromethyl)phenyl}methyl)-1-{[1-(trifluoromethyl)cyclopropyl]carbonyl}-L-prolinamide]	–	620 pM	1000 pM	–	–	–	–
CCN1CCN(Cc2ccc(C(F)(F)[C@@H]3C[C@@H](C(=O)NC4(C#N)CC4)N(C(=O)C4(C(F)(F)F)CC4)C3)c(C(F)(F)F)c2)CC1 [Example 13]	–	370 pM	1000 pM	–	–	–	–
CCN1CCN(Cc2ccc(C(F)(F)[C@@H]3C[C@@H](C(=O)NC4(C#N)CC4)N(C(=O)C4(C)CC4)C3)c(C(F)(F)F)c2)CC1 [Example 14]	–	600 pM	430 pM	–	–	–	–

Second part, led by results:

melting point	IC50 [2]	IC50 [3]	SMILES	inhibition rate of ΔMFI (increase in expression of MHC class II on B220 positive B cells) [1]	effect on SLE-like disease onset ([4]; 1 mg/kg b.i.d. oral)	anti-dsDNA IgG antibody value in plasma, geometric mean value ([4]; 1 mg/kg b.i.d. oral from age of 20 weeks, age of 28 weeks and 32 weeks, 10 subjects, vehicle 216662 U/mL, P value=0.0009)	urine protein value (creatinine corrected value), geometric mean value ([4]; 1 mg/kg b.i.d. oral, age of 40 weeks, 10 subjects, vehicle 13.0, P value=0.0005)
–	590 pM	880 pM	CN1CCN(Cc2ccc(C(F)(F)C3C[C@@H](C(=O)NC4(C#N)CC4)N(C(=O)C4(C)CC4)C3)c(C(F)(F)F)c2)CC1 (mixture of isomers) [Example 8, N-(1-cyanocyclopropyl)-4-(difluoro{4-[(4-methylpiperazin-1-yl)methyl]-2-(trifluoromethyl)phenyl}methyl)-1-[(1-methylcyclopropyl)carbonyl]-L-prolinamide dihydrochloride]	41%	–	–	–
–	650 pM	810 pM	CN1CCN(Cc2ccc(C(F)(F)[C@@H]3C[C@@H](C(=O)NC4(C#N)CC4)N(C(=O)C4(C)CC4)C3)c(C(F)(F)F)c2)CC1 [Example 2, (4R)—N-(1-cyanocyclopropyl)-4-(difluoro{4-[(4-methylpiperazin-1-yl)methyl]-2-(trifluoromethyl)phenyl}methyl)-1-[(1-methylcyclopropyl)carbonyl]-L-prolinamide dihydrochloride]	–	has the effect of suppressing the SLE-like disease onset	26827 U/mL	0.7
